Source: US4000293A, “Method of inhibiting bacterial growth with certain selected 3-chloro-2-oxazolidinones” (Interx Research Corporation, priority 1975, dated 1976)
Like-named read-outs stand apart in the source and are kept apart here.

Key:
[1] = system: Staphylococcus aureus ATCC 6538; test: contact germicidal (bactericidal) time before and after 14 day incubation of solutions at 40° C., Table B; format: cell-based; conditions: pH 7.0; for Bc Time, final: after 14 day incubation at 40° C.; for Bc Time, initial: before incubation, at initial ppm +Cl of the same line; for bactericidal activity after the test period (in words): after 14 days at 40° C.
Method: (§1) The compounds of the invention and certain reference compounds were tested in the germidical efficiency test, a modification of the standard serial dilution test, against Staphylococcus aureus ATCC 6538. In the germicidal efficiency test, instead of determining the minimum inhibitory concentration as in the serial dilution test procedure, the time required to effect complete sterilization of the micro-organism when exposed to a given concentration of the test substance is determined. This procedure affords a basis of comparison of the time dependent efficacies of the various test substances which gives a measure not only of the germidical efficacy of the test species but, since as will be seen germicidal efficiency of the N-chloro compounds generally tends to diminish with time, apparently owing to decomposition of, and therefore dilution of, the active species, the test procedure also provides an indication of the efficacy to be expected at varying time intervals after solution of the test species in the application medium. The test procedure is described as follows: A stock solution of known concentration of each compound to be tested was prepared in 0.1M sodium dihydrogen phosphate buffered to pH 7.0. To 5 ml. of the test solution was added 0.2 ml. of an overnight broth culture containing from 6×10^6 to 8×10^6 organisms/ml. of Staphylococcus aureus ATCC 6538 and 5 g. of gelysate peptone and 3 g. of beef extract per 1000 ml. of water. At time intervals of 0.5, 1, 2, 3, 4, 5, 6, 7, 8, 9, 10, 15 and 30 minutes, a loop of this suspension was subcultured into 5 ml. of sterile nutrient broth (5 g. of gelysate peptone and 3 g. of beef extract/1000 ml. of water), and the samples were incubated at 37° C. for 7 days with daily observation for evidence of bacterial growth. The time interval in which no bacterial growth was observed after the incubation period in a particular sample was recorded as the end point.
(§2) The stabilities and the time-dependent efficacies of the claimed and reference species were determined by comparing the contact germicidal times and the initial and final concentrations of positive chlorine in solutions of the test species in 0.1M sodium dihydrogen phosphate buffered to pH 7.0 before and after 14 day incubation of the solutions at 40° C. The results are given in Table B below, where the columns headed "Bc Time" refers to the bactericidal time in minutes.

[2] = positive chlorine concentration before and after 14 day incubation of solutions at pH 7.0, 40° C., Table B; format: physicochemical; conditions: for Final Concn. of positive chlorine: after 14 day incubation at 40° C.; for Final Concn. of positive chlorine / Initial Concn. of positive chlorine: 0.1M phosphate pH 7.0; for Initial Concn. of positive chlorine: before incubation; for decomposition over the test period (in words): 14 days, 40° C., pH 7.0
Method: (§3) The germicidal kill times so-obtained at various concentrations of the compounds of the invention and of certain reference compounds are given in Table A below. The compounds are identified in each case by the Example number above where the compounds are described. Here and elsewhere in the specification that follows, concentrations are expressed in parts per million (ppm) of "positive" chlorine, which was determined in each instance by addition of excess aqueous potassium iodide to an acidified solution of the test compound and titration of the iodine liberated with standard sodium thiosulfate solution.
as §2

[3] = system: Staphylococcus aureus ATCC 6538; test: germicidal efficiency test (modified serial dilution; time to complete sterilization), Table A; format: cell-based; conditions: pH 7.0
Method: The compounds are thus useful as bactericidal agents.
as §1, §3

[4] = stability in the neat state (% chlorine by iodometric titration), Table D; format: physicochemical
Method: In those instances, the data were acquired at ambient temperature (approximately 23° C.). The method used was similar to that described above in which the rate of disappearance of "positive" chlorine was followed iodometrically by titration of iodine liberated from added potassium iodide with standard sodium thiosulfate solution. Samples of the compounds were individually sealed in ampoules and stored in the dark at 23° C. or 40° C. and weighed amounts removed from time to time for analysis.
For each of the compounds analyzed as indicated above, percent chlorine was plotted as ordinate against time in days as abscissa on semi-logarithmic paper and the points connected by a smooth curve for each compound.

[5] = hydrolytic stability in 0.1M sodium dihydrogen phosphate pH 7.0 at 40° (first-order kinetics), Table C; format: physicochemical; conditions: for half-life: 0.1m phosphate buffer; for half-life / Rate Constant k: 0.1M phosphate pH 7.0, 40°; for Rate Constant k: first-order
Method: A further measure of the relative stabilities of the reference and claimed species was obtained by measuring the hydrolytic stability of the various species in 0.1M sodium dihydrogen phosphate buffered to pH 7.0 at 40°. For each species, the rate of change in the concentration of positive chlorine in the solution was measured by the volume of standard thiosulfate required to titrate a series of aliquots of a standard volume of the solution at various time intervals using potassium iodide/sodium thiosulfate as detailed above. The volumes of thiosulfate required to titrate each sample so obtained were interpreted as first-order kinetic processes. The hydrolytic stabilities of the reference and claimed species under the experimental conditions were characterized by the reaction rate constants and half-lives obtained from a linear regression analysis of the experimental data. The results obtained are given in Table C below and are also shown in FIG. 1 where the volumes in milliliters of standard thiosulfate required to titrate the positive chlorine in the various samples are plotted as ordinate against time in days as abscissa.

With `O=C1OCCN1Cl` [Example 1A, 3-chloro-2-oxazolidinone] the “Bc Time, final” value [1] was > 30 min, the “Bc Time, initial” value [1] was 1 min and the “Final Concn. of positive chlorine” value [2] was 30 ppm +Cl. The “Initial Concn. of positive chlorine” value [2] was 465 ppm +Cl, the “Bactericidal Time” value ([3]; 157 ppm +Cl) was 7 min and the “Bactericidal Time” value ([3]; 281 ppm +Cl) was 2 min. For the same compound, the “Bactericidal Time” value ([3]; 465 ppm +Cl) was 1 min, the “% Cl, neat” value ([4]; 40° C., 0 Hrs.) was 28.9% and the “% Cl, neat” value ([4]; 40° C., 2 Hrs.) was 27.4%. For the same compound, the “% Cl, neat” value ([4]; 40° C., 18.5 Hrs.) was 25.9%, the “% Cl, neat” value ([4]; 40° C., 24 Hrs.) was 26.9% and the “% Cl, neat” value ([4]; 40° C., 54 Hrs.) was 27.2%. The “% Cl, neat” value ([4]; 40° C., 72 Hrs.) was 24.8%, the “% Cl, neat” value ([4]; 40° C., 80 Hrs.) was 23.5% and the “% Cl, neat” value ([4]; 40° C., 98 Hrs.) was 26.2%. The “% Cl, neat” value ([4]; 40° C., 144 Hrs.) was 8.7%, the “% Cl, neat” value ([4]; 40° C., 168 Hrs.) was 0.4% and the half-life ([5]; hydrolysis) was 45 h. The “Rate Constant k” value ([5]; hydrolysis) was 0.0155 h⁻¹.

For `CCC1CN(Cl)C(=O)O1` (stereo not drawn) [Example 1E, 3-Chloro-5-ethyl-2-oxazolidinone], the “Bc Time, final” value [1] was > 30 min, the “Bc Time, initial” value [1] was 1 min and the “Final Concn. of positive chlorine” value [2] was 15 ppm +Cl. The “Initial Concn. of positive chlorine” value [2] was 535 ppm +Cl, the “Bactericidal Time” value ([3]; 96 ppm +Cl) was 6 min and the “Bactericidal Time” value ([3]; 161 ppm +Cl) was 2 min. For the same compound, the “Bactericidal Time” value ([3]; 372 ppm +Cl) was 3 min and the “Bactericidal Time” value ([3]; 535 ppm +Cl) was 1 min.

With `CC1(C)CN(Cl)C(=O)O1` [Example 1G, 3-Chloro-5,5-dimethyl-2-oxazolidinone] the “bactericidal activity after the test period (in words)” value [1] was “retained a good measure of bactericidal activity superior to each of the reference species”, the “Bc Time, initial” value [1] was 7 min and the “decomposition over the test period (in words)” value [2] was “substantially decomposed over the test period”. For the same compound, the “Final Concn. of positive chlorine” value [2] was 43 ppm +Cl, the “Initial Concn. of positive chlorine” value [2] was 473 ppm +Cl and the “Bactericidal Time” value ([3]; 473 ppm +Cl) was 7 min. For the same compound, the “% Cl, neat” value ([4]; 40° C., 0 Days) was 19.6%, the “% Cl, neat” value ([4]; 40° C., 1 Day) was 22.1% and the “% Cl, neat” value ([4]; 40° C., 4 Days) was 23.7%. The “% Cl, neat” value ([4]; 40° C., 7 Days) was 16.5%, the “% Cl, neat” value ([4]; 40° C., 11 Days) was 18.1% and the “% Cl, neat” value ([4]; 40° C., 15 Days) was 14.4%. The “% Cl, neat” value ([4]; 40° C., 19 Days) was 10.0%, the “% Cl, neat” value ([4]; 40° C., 22 Days) was 0% and the “stability in the neat state (in words)” value ([4]; neat, 40° C.) was “surprising stability”. For the same compound, the half-life ([5]; hydrolysis) was 86.6 h, the “Rate Constant k” value ([5]; hydrolysis) was 0.008 h⁻¹ and the “half-life relative to the half-lives of the reference species” value ([5]; hydrolysis, pH 7.0, 40°) was “around twice to eight times as great”. For the same compound, the “hydrolytic stability (in words)” value ([5]; pH 7.0, 40°) was “somewhat less stable than the corresponding 4,4-dimethyl compound”.

For `CCC1(C)COC(=O)N1Cl` (stereo not drawn) [Example 1H, 3-Chloro-4-ethyl-4-methyl-2-oxazolidinone], the “Bc Time, final” value [1] was 3 min, the “bactericidal activity after the test period (in words)” value [1] was “retained the original level of bactericidal activity” and the “Bc Time, initial” value [1] was 3 min. For the same compound, the “decomposition over the test period (in words)” value [2] was “decomposed only slightly over the test period”, the “Final Concn. of positive chlorine” value [2] was 553 ppm +Cl and the “Initial Concn. of positive chlorine” value [2] was 555 ppm +Cl. The “stability in the neat state (in words)” value [4] was “surprising stability”, the “% Cl, neat” value ([4]; 40° C., 0 Days) was 21.7% and the “% Cl, neat” value ([4]; 40° C., 2 Days) was 23.6%. The “% Cl, neat” value ([4]; 40° C., 5 Days) was 21.1%, the “% Cl, neat” value ([4]; 40° C., 10 Days) was 20.7% and the “% Cl, neat” value ([4]; 40° C., 14 Days) was 21.0%. The “% Cl, neat” value ([4]; 40° C., 18 Days) was 20.6%, the “% Cl, neat” value ([4]; 40° C., 25 Days) was 18.2% and the “% Cl, neat” value ([4]; 40° C., 39 Days) was 22.3%. For the same compound, the “% Cl, neat” value ([4]; 40° C., 53 Days) was 20.2% and the “% Cl, neat” value ([4]; 40° C., 164 Days) was 19.6%.

In the case of `CC1OC(=O)N(Cl)C1C` (stereo not drawn) [Example 1C, 3-Chloro-4,5-dimethyl-2-oxazolidinone], the “Bc Time, initial” value [1] is reported as 4 min, the “Final Concn. of positive chlorine” value [2] is reported as 51 ppm +Cl and the “Initial Concn. of positive chlorine” value [2] is reported as 490 ppm +Cl. The “Bactericidal Time” value ([3]; 117 ppm +Cl) was 10 min, the “Bactericidal Time” value ([3]; 295 ppm +Cl) was 5 min and the “Bactericidal Time” value ([3]; 490 ppm +Cl) was 4 min. For the same compound, the “% Cl, neat” value ([4]; 23° C., 0 Hrs.) was 21.8%, the “% Cl, neat” value ([4]; 23° C., 3 Hrs.) was 20.8% and the “% Cl, neat” value ([4]; 23° C., 5 Hrs.) was 8.2%. For the same compound, the “% Cl, neat” value ([4]; 23° C., 7.5 Hrs.) was 0.47%, the “% Cl, neat” value ([4]; 23° C., 24 Hrs.) was 0.17% and the half-life ([5]; hydrolysis) was 38.5 h. The “Rate Constant k” value ([5]; hydrolysis) was 0.018 h⁻¹.

For `CC1COC(=O)N1Cl` (stereo not drawn) [Example 1B, 3-Chloro-4-methyl-2-oxazolidinone], the “Bc Time, final” value [1] was > 30 min, the “Bc Time, initial” value [1] was 1 min and the “Final Concn. of positive chlorine” value [2] was 14 ppm +Cl. The “Initial Concn. of positive chlorine” value [2] was 610 ppm +Cl, the “Bactericidal Time” value ([3]; 131 ppm +Cl) was 7 min and the “Bactericidal Time” value ([3]; 303 ppm +Cl) was 4 min. The “Bactericidal Time” value ([3]; 610 ppm +Cl) was 1 min, the “% Cl, neat” value ([4]; 23° C., 0 Hrs.) was 26.5% and the “% Cl, neat” value ([4]; 23° C., 3 Hrs.) was 25.9%. For the same compound, the “% Cl, neat” value ([4]; 23° C., 5 Hrs.) was 25.3%, the “% Cl, neat” value ([4]; 23° C., 6.5 Hrs.) was 25.0% and the “% Cl, neat” value ([4]; 23° C., 9 Hrs.) was 25.0%. The “% Cl, neat” value ([4]; 23° C., 10.5 Hrs.) was 24.1%, the “% Cl, neat” value ([4]; 23° C., 21.5 Hrs.) was 21.7% and the “% Cl, neat” value ([4]; 23° C., 24.5 Hrs.) was 21.1%. The “% Cl, neat” value ([4]; 23° C., 29 Hrs.) was 14.4%, the “% Cl, neat” value ([4]; 23° C., 30 Hrs.) was 12.4% and the “% Cl, neat” value ([4]; 23° C., 32 Hrs.) was 6.1%. The “% Cl, neat” value ([4]; 23° C., 35 Hrs.) was 2.0%, the “% Cl, neat” value ([4]; 23° C., 45 Hrs.) was 0% and the half-life ([5]; hydrolysis) was 10.9 h. For the same compound, the “Rate Constant k” value ([5]; hydrolysis) was 0.0633 h⁻¹.

For `CC1CN(Cl)C(=O)O1` (stereo not drawn) [Example 1D, 3-Chloro-5-methyl-2-oxazolidinone], the “Bc Time, final” value [1] was > 30 min, the “Bc Time, initial” value [1] was 0.5 min and the “Final Concn. of positive chlorine” value [2] was 34 ppm +Cl. For the same compound, the “Initial Concn. of positive chlorine” value [2] was 548 ppm +Cl, the “Bactericidal Time” value ([3]; 74 ppm +Cl) was > 30 min and the “Bactericidal Time” value ([3]; 383 ppm +Cl) was 2 min. For the same compound, the “Bactericidal Time” value ([3]; 548 ppm +Cl) was 0.5 min.
